{"source": "patent US10927106B2", "about": "“Benzothiazole derivatives as DYRK1 inhibitors” (PHARMASUM THERAPEUTICS AS, priority 2017, dated 2021)", "assay_in_all_cases": "Kinase profiling, 33P ATP filter binding assay", "assay_type_in_all_cases": "biochemical", "conditions_in_all_cases": "1 micromolar inhibitor concentration, read-out: percentage inhibition", "key": {"MKK1": {"biological_target": "MKK1 (Homo sapiens (Human), UniProt Q02750)"}, "ERK2": {"biological_target": "ERK2 (Homo sapiens (Human), UniProt P28482)", "sequence (P28482 whole entry, species assumed)": "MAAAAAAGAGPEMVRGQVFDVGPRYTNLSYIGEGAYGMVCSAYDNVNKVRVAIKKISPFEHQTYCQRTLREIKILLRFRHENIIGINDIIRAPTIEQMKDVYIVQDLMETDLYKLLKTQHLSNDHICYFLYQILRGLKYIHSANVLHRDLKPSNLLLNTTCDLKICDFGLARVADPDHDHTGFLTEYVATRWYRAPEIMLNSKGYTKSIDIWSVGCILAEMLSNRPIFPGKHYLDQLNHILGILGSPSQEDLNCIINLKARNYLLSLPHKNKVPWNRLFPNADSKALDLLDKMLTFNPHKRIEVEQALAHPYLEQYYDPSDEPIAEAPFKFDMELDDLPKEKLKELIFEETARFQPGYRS"}, "p38b MAPK": {"biological_target": "p38b MAPK (Homo sapiens (Human), UniProt Q15759)"}, "p38g MAPK": {"biological_target": "p38g MAPK (Homo sapiens (Human), UniProt P53778)"}, "p38d MAPK": {"biological_target": "p38d MAPK (Homo sapiens (Human), UniProt O15264)"}, "ERK8": {"biological_target": "ERK8 (Homo sapiens (Human), UniProt Q8TD08)"}, "RSK1": {"biological_target": "RSK1 (Homo sapiens (Human), UniProt Q15418)"}, "PDK1": {"biological_target": "PDK1 (Homo sapiens (Human), UniProt O15530)"}, "PKBb": {"biological_target": "PKBb (Homo sapiens (Human), UniProt P31751)", "sequence (P31751 whole entry)": "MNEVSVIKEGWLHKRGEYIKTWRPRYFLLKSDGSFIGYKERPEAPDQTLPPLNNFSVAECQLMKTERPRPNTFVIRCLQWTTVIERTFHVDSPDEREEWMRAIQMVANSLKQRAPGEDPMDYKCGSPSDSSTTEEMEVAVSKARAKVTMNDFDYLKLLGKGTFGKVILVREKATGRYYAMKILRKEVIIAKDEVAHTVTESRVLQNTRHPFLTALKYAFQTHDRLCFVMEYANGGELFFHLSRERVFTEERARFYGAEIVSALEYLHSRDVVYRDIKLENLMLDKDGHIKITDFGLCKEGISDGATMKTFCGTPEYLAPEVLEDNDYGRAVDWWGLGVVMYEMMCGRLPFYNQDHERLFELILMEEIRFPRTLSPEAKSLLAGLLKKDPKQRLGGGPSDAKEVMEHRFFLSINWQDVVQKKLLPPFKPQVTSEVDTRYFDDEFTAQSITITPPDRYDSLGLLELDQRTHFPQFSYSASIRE"}, "SGK1": {"biological_target": "SGK1 (Homo sapiens (Human), UniProt O00141)", "sequence (O00141 whole entry, species assumed)": "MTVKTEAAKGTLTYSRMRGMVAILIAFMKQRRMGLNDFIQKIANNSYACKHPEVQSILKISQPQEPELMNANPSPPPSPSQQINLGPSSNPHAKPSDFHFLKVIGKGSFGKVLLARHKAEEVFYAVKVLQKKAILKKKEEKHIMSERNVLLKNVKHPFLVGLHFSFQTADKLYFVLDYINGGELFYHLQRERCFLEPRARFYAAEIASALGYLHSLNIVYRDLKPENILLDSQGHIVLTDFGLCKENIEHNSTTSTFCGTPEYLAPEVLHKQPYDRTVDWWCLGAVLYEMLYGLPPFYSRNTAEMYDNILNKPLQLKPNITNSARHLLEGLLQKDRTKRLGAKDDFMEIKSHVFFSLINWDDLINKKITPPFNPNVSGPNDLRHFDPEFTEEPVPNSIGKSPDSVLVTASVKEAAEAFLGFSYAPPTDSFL"}, "PKA": {"biological_target": "PKA (Homo sapiens (Human), UniProt P17612)"}, "PKCy": {"biological_target": "PKCy (Homo sapiens (Human), UniProt P05129)"}, "MNK1": {"biological_target": "MNK1 (Homo sapiens (Human), UniProt Q9BUB5)"}, "MAPKAP-K2": {"biological_target": "MAPKAP-K2 (Homo sapiens (Human), UniProt P49137)"}, "PRAK": {"biological_target": "PRAK (Homo sapiens (Human), UniProt Q8IW41)"}, "SmMLCK": {"biological_target": "SmMLCK (Homo sapiens (Human), UniProt Q15746)", "procedure": "The determination of protein kinase inhibition was performed at the International Centre for Kinase Profiling at the University of Dundee, UK. […] The ATP concentrations were at or below the calculated Km for ATP for each particular kinase."}, "CHK2": {"biological_target": "CHK2 (Homo sapiens (Human), UniProt O96017)"}, "CDK9-Cyclin T1": {"biological_target": "CDK9-Cyclin T1 (Homo sapiens (Human), UniProt P50750)", "sequence (P50750 whole entry)": "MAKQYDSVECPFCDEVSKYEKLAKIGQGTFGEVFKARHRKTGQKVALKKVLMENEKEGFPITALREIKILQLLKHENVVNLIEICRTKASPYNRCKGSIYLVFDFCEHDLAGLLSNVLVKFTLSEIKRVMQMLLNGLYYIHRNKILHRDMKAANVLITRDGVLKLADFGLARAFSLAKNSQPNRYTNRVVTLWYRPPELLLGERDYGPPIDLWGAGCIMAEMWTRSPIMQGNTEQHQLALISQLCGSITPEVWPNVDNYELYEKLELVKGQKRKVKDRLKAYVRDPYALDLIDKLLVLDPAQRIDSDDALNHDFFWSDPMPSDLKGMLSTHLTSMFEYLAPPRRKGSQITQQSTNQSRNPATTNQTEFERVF", "sequence (O60563 whole entry partner)": "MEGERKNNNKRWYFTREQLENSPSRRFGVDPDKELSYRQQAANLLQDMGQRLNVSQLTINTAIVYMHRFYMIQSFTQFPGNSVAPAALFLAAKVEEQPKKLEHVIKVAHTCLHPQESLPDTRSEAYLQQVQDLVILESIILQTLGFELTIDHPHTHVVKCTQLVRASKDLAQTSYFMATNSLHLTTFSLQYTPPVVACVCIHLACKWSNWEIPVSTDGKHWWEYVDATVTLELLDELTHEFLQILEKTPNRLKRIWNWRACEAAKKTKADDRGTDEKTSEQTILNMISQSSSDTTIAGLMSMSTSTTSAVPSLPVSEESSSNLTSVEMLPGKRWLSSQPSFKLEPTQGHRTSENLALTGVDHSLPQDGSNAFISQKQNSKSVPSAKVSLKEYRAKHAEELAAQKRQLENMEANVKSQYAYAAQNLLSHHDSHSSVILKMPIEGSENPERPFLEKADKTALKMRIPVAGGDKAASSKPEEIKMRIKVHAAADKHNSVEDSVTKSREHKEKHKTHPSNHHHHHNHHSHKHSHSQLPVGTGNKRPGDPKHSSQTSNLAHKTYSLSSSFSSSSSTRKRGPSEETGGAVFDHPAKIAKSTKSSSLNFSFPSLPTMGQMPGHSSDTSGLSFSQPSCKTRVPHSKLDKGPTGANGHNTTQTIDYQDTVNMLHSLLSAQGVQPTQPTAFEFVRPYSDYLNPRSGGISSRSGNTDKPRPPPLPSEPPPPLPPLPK"}, "MARK1": {"biological_target": "MARK1 (Homo sapiens (Human), UniProt Q9P0L2)"}, "BRSK1": {"biological_target": "BRSK1 (Homo sapiens (Human), UniProt Q8TDC3)", "sequence (Q8TDC3 whole entry, species assumed)": "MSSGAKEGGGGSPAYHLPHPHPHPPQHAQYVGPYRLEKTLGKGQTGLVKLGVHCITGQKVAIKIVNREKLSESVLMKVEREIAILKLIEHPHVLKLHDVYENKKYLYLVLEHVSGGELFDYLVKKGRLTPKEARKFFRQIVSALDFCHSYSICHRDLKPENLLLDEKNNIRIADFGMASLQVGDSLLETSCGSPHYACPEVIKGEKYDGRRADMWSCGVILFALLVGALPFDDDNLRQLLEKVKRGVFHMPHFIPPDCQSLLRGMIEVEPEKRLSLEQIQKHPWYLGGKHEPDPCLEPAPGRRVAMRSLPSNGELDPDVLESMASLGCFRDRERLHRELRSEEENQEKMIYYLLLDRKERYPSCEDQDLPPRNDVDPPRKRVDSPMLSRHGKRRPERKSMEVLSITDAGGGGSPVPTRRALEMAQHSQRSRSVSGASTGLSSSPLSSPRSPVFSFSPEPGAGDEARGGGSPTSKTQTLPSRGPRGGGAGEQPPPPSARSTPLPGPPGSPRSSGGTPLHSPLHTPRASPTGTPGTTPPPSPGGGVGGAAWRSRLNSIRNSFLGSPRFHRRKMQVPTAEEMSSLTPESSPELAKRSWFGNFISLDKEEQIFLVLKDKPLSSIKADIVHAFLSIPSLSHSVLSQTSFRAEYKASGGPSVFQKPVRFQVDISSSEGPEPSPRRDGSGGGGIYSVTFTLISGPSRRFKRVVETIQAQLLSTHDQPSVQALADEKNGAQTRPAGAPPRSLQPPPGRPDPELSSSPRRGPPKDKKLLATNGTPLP"}, "MELK": {"biological_target": "MELK (Homo sapiens (Human), UniProt Q14680)"}, "CK1y2": {"biological_target": "CK1y2 (Homo sapiens (Human), UniProt P78368)"}, "TTBK2": {"biological_target": "TTBK2 (Homo sapiens (Human), UniProt Q6IQ55)"}, "PIM1": {"biological_target": "PIM1 (Homo sapiens (Human), UniProt P11309)"}, "PIM3": {"biological_target": "PIM3 (Homo sapiens (Human), UniProt Q86V86)"}, "PAK6": {"biological_target": "PAK6 (Homo sapiens (Human), UniProt Q9NQU5)"}, "MST3": {"biological_target": "MST3 (Homo sapiens (Human), UniProt Q9Y6E0)"}, "MAP4K5": {"biological_target": "MAP4K5 (Homo sapiens (Human), UniProt Q9Y4K4)"}, "ASK1": {"biological_target": "ASK1 (Homo sapiens (Human), UniProt Q99683)"}, "TAK1": {"biological_target": "TAK1 (Homo sapiens (Human), UniProt O43318)"}, "IRAK1": {"biological_target": "IRAK1 (Homo sapiens (Human), UniProt P51617)"}, "IRAK4": {"biological_target": "IRAK4 (Homo sapiens (Human), UniProt Q9NWZ3)"}, "BTK": {"biological_target": "BTK (Homo sapiens (Human), UniProt Q06187)"}, "JAK2": {"biological_target": "JAK2 (Homo sapiens (Human), UniProt O60674)"}, "TIE2": {"biological_target": "TIE2 (Homo sapiens (Human), UniProt Q02763)"}, "EPH-B1": {"biological_target": "EPH-B1 (Homo sapiens (Human), UniProt P54762)"}, "FGF-R1": {"biological_target": "FGF-R1 (Homo sapiens (Human), UniProt P11362)", "sequence (P11362 22-822, species assumed)": "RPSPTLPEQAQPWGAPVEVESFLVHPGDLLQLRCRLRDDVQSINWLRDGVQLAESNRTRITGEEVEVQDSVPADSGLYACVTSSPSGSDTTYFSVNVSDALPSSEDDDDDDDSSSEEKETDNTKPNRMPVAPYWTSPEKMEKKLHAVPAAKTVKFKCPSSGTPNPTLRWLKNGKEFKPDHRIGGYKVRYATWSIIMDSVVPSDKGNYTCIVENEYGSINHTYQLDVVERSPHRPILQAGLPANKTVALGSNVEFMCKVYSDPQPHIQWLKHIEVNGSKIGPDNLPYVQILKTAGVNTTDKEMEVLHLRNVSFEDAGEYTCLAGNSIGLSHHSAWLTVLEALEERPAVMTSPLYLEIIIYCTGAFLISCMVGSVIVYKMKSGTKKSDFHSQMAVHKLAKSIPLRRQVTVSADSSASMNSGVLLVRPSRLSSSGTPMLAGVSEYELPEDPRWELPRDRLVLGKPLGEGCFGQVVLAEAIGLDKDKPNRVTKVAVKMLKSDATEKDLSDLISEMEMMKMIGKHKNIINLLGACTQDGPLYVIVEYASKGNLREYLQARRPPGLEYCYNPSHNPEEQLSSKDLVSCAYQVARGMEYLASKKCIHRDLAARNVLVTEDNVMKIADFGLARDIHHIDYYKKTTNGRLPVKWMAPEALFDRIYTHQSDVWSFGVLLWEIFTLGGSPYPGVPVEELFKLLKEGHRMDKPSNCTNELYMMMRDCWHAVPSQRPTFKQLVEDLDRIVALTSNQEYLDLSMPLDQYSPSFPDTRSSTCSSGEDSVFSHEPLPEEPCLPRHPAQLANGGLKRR"}, "HER4": {"biological_target": "HER4 (Homo sapiens (Human), UniProt Q15303)"}, "IR": {"biological_target": "IR (Homo sapiens (Human), UniProt P06213)"}, "TrkA": {"biological_target": "TrkA (Homo sapiens (Human), UniProt P04629)"}, "VEG-FR": {"biological_target": "VEG-FR (Homo sapiens (Human), UniProt P17948)"}}, "data": [{"smiles": "COc1ccc2sc(-c3cncc(NC(C)=O)c3)nc2c1", "note": "[4-93, N-(5-(5-Methoxybenzo[d]thiazol-2-yl)pyridin-3-yl)acetamide]", "values": [{"measurement": "inhibition at 1 µM", "setting": "MKK1", "value": 0, "unit": "%"}, {"measurement": "inhibition at 1 µM", "setting": "ERK2", "value": 0, "unit": "%"}, {"measurement": "inhibition at 1 µM", "setting": "p38b MAPK", "value": 0, "unit": "%"}, {"measurement": "inhibition at 1 µM", "setting": "p38g MAPK", "value": 0, "unit": "%"}, {"measurement": "inhibition at 1 µM", "setting": "p38d MAPK", "value": 0, "unit": "%"}, {"measurement": "inhibition at 1 µM", "setting": "ERK8", "value": 11, "unit": "%"}, {"measurement": "inhibition at 1 µM", "setting": "RSK1", "value": 1, "unit": "%"}, {"measurement": "inhibition at 1 µM", "setting": "PDK1", "value": 0, "unit": "%"}, {"measurement": "inhibition at 1 µM", "setting": "PKBb", "value": 0, "unit": "%"}, {"measurement": "inhibition at 1 µM", "setting": "SGK1", "value": 0, "unit": "%"}, {"measurement": "inhibition at 1 µM", "setting": "PKA", "value": 12, "unit": "%"}, {"measurement": "inhibition at 1 µM", "setting": "PKCy", "value": 0, "unit": "%"}, {"measurement": "inhibition at 1 µM", "setting": "MNK1", "value": 0, "unit": "%"}, {"measurement": "inhibition at 1 µM", "setting": "MAPKAP-K2", "value": 0, "unit": "%"}, {"measurement": "inhibition at 1 µM", "setting": "PRAK", "value": 0, "unit": "%"}, {"measurement": "inhibition at 1 µM", "setting": "SmMLCK", "value": 0, "unit": "%"}, {"measurement": "inhibition at 1 µM", "setting": "CHK2", "value": 0, "unit": "%"}, {"measurement": "inhibition at 1 µM", "setting": "CDK9-Cyclin T1", "value": 0, "unit": "%"}, {"measurement": "inhibition at 1 µM", "setting": "MARK1", "value": 0, "unit": "%"}, {"measurement": "inhibition at 1 µM", "setting": "BRSK1", "value": 0, "unit": "%"}, {"measurement": "inhibition at 1 µM", "setting": "MELK", "value": 1, "unit": "%"}, {"measurement": "inhibition at 1 µM", "setting": "CK1y2", "value": 0, "unit": "%"}, {"measurement": "inhibition at 1 µM", "setting": "TTBK2", "value": 0, "unit": "%"}, {"measurement": "inhibition at 1 µM", "setting": "PIM1", "value": 2, "unit": "%"}, {"measurement": "inhibition at 1 µM", "setting": "PIM3", "value": 7, "unit": "%"}, {"measurement": "inhibition at 1 µM", "setting": "PAK6", "value": 0, "unit": "%"}, {"measurement": "inhibition at 1 µM", "setting": "MST3", "value": 0, "unit": "%"}, {"measurement": "inhibition at 1 µM", "setting": "MAP4K5", "value": 18, "unit": "%"}, {"measurement": "inhibition at 1 µM", "setting": "ASK1", "value": 0, "unit": "%"}, {"measurement": "inhibition at 1 µM", "setting": "TAK1", "value": 52, "unit": "%"}, {"measurement": "inhibition at 1 µM", "setting": "IRAK1", "value": 0, "unit": "%"}, {"measurement": "inhibition at 1 µM", "setting": "IRAK4", "value": 12, "unit": "%"}, {"measurement": "inhibition at 1 µM", "setting": "BTK", "value": 8, "unit": "%"}, {"measurement": "inhibition at 1 µM", "setting": "JAK2", "value": 0, "unit": "%"}, {"measurement": "inhibition at 1 µM", "setting": "TIE2", "value": 0, "unit": "%"}, {"measurement": "inhibition at 1 µM", "setting": "EPH-B1", "value": 0, "unit": "%"}, {"measurement": "inhibition at 1 µM", "setting": "FGF-R1", "value": 0, "unit": "%"}, {"measurement": "inhibition at 1 µM", "setting": "HER4", "value": 0, "unit": "%"}, {"measurement": "inhibition at 1 µM", "setting": "IR", "value": 0, "unit": "%"}, {"measurement": "inhibition at 1 µM", "setting": "TrkA", "value": 0, "unit": "%"}, {"measurement": "inhibition at 1 µM", "setting": "VEG-FR", "value": 0, "unit": "%"}]}, {"smiles": "CS(=O)(=O)Nc1cncc(-c2nc3cc(O)ccc3s2)c1", "note": "[4-99, N-(5-(5-Hydroxybenzo[d]thiazol-2-yl)pyridin-3-yl)methanesulfonamide]", "values": [{"measurement": "inhibition at 1 µM", "setting": "MKK1", "value": 0, "unit": "%"}, {"measurement": "inhibition at 1 µM", "setting": "ERK2", "value": 0, "unit": "%"}, {"measurement": "inhibition at 1 µM", "setting": "p38b MAPK", "value": 0, "unit": "%"}, {"measurement": "inhibition at 1 µM", "setting": "p38g MAPK", "value": 0, "unit": "%"}, {"measurement": "inhibition at 1 µM", "setting": "p38d MAPK", "value": 0, "unit": "%"}, {"measurement": "inhibition at 1 µM", "setting": "ERK8", "value": 0, "unit": "%"}, {"measurement": "inhibition at 1 µM", "setting": "RSK1", "value": 0, "unit": "%"}, {"measurement": "inhibition at 1 µM", "setting": "PDK1", "value": 0, "unit": "%"}, {"measurement": "inhibition at 1 µM", "setting": "PKBb", "value": 0, "unit": "%"}, {"measurement": "inhibition at 1 µM", "setting": "SGK1", "value": 7, "unit": "%"}, {"measurement": "inhibition at 1 µM", "setting": "PKA", "value": 3, "unit": "%"}, {"measurement": "inhibition at 1 µM", "setting": "PKCy", "value": 0, "unit": "%"}, {"measurement": "inhibition at 1 µM", "setting": "MNK1", "value": 0, "unit": "%"}, {"measurement": "inhibition at 1 µM", "setting": "MAPKAP-K2", "value": 0, "unit": "%"}, {"measurement": "inhibition at 1 µM", "setting": "PRAK", "value": 0, "unit": "%"}, {"measurement": "inhibition at 1 µM", "setting": "SmMLCK", "value": 0, "unit": "%"}, {"measurement": "inhibition at 1 µM", "setting": "CHK2", "value": 0, "unit": "%"}, {"measurement": "inhibition at 1 µM", "setting": "CDK9-Cyclin T1", "value": 0, "unit": "%"}, {"measurement": "inhibition at 1 µM", "setting": "MARK1", "value": 0, "unit": "%"}, {"measurement": "inhibition at 1 µM", "setting": "BRSK1", "value": 0, "unit": "%"}, {"measurement": "inhibition at 1 µM", "setting": "MELK", "value": 0, "unit": "%"}, {"measurement": "inhibition at 1 µM", "setting": "CK1y2", "value": 0, "unit": "%"}, {"measurement": "inhibition at 1 µM", "setting": "TTBK2", "value": 0, "unit": "%"}, {"measurement": "inhibition at 1 µM", "setting": "PIM1", "value": 0, "unit": "%"}, {"measurement": "inhibition at 1 µM", "setting": "PIM3", "value": 0, "unit": "%"}, {"measurement": "inhibition at 1 µM", "setting": "PAK6", "value": 0, "unit": "%"}, {"measurement": "inhibition at 1 µM", "setting": "MST3", "value": 0, "unit": "%"}, {"measurement": "inhibition at 1 µM", "setting": "MAP4K5", "value": 0, "unit": "%"}, {"measurement": "inhibition at 1 µM", "setting": "ASK1", "value": 0, "unit": "%"}, {"measurement": "inhibition at 1 µM", "setting": "TAK1", "value": 8, "unit": "%"}, {"measurement": "inhibition at 1 µM", "setting": "IRAK1", "value": 0, "unit": "%"}, {"measurement": "inhibition at 1 µM", "setting": "IRAK4", "value": 8, "unit": "%"}, {"measurement": "inhibition at 1 µM", "setting": "BTK", "value": 0, "unit": "%"}, {"measurement": "inhibition at 1 µM", "setting": "JAK2", "value": 0, "unit": "%"}, {"measurement": "inhibition at 1 µM", "setting": "TIE2", "value": 3, "unit": "%"}, {"measurement": "inhibition at 1 µM", "setting": "EPH-B1", "value": 0, "unit": "%"}, {"measurement": "inhibition at 1 µM", "setting": "FGF-R1", "value": 0, "unit": "%"}, {"measurement": "inhibition at 1 µM", "setting": "HER4", "value": 0, "unit": "%"}, {"measurement": "inhibition at 1 µM", "setting": "IR", "value": 0, "unit": "%"}, {"measurement": "inhibition at 1 µM", "setting": "TrkA", "value": 0, "unit": "%"}, {"measurement": "inhibition at 1 µM", "setting": "VEG-FR", "value": 0, "unit": "%"}]}]}
